# Test results from patent US9701625B2, “Nitrone compounds and their use in personal care” (Dow Global Technologies LLC, priority 2014, dated 2017).
# Experiment: Oxygen Radical Absorbance Capacity (ORAC) protocol
# Conditions: for TEAC: Trolox equivalent AO capacity calculated from ORAC values; for TEAC values compared to the compounds of the invention: in words
# Protocol: Antioxidant potential is evaluated using the Oxygen Radical Absorbance Capacity (ORAC) protocol. ORAC is a chemical in-vitro method based on the hydrogen atom transfer (HAT) mechanism (see N. Re et al., Free Radical Biology & Medicine, 26 (9/10), 1231 (1997)). ORAC measures antioxidant inhibition of peroxyl radical induced oxidations and thus reflects classical radical chain breaking antioxidant activity by H atom transfer. In this assay, the peroxyl radical reacts with a fluorescent probe to form a non-fluorescent product. This is quantitated using a fluorescence measurement. Antioxidant capacity is determined by decreased rate and amount of product formed over time. This assay depends upon the free radical damage to the fluorescent probe resulting in the change in its fluorescence intensity. The change of fluorescence intensity is an indicator of the degree of free radical damage. In the presence of an antioxidant, the inhibition of free radical damage is reflected in higher fluorescence intensity and can be measured as antioxidant capacity against the free radicals. The uniqueness of ORAC assay is that the reaction is driven to completion. This allows calculation of the area under the curve (AUC) and gives an absolute quantitation of antioxidancy as opposed to relative measurements in many other assays.
# As noted, the longer it takes to observe a decrease in fluorescence, the higher the antioxidant (AO) potential. From the AUC for a given antioxidant, the AUC for blank is subtracted to give its ORAC value. The concentration of AO needed to give the same AUC values as Trolox is calculated and used to represent the Trolox equivalent AO Capacity (TEAC). Trolox is ((±)-6-Hydroxy-2,5,7,8-tetramethylchromane-2-carboxylic acid, CAS #53188-07-1), and is used as an internal control.
# The ORAC test is conducted in the compounds of Table 1 above (inventive compounds) as well as to Vitamin C, Vitamin E, and the following comparative compounds:
# The inventive nitrones in the ORAC test solutions were at a concentration of 30 micromolar, while the concentrations of Trolox, Vitamin C, Vitamin E, BHT, PBN+BHT, and VAL-IPHA were at 100 micromolar. The TEAC values calculated from the ORAC values are listed the Table 2.
# [1] = inventive nitrones at 30 micromolar
# [2] = test concentration 100 micromolar
compound,measurement,setting,value
[O-]/[N+](=C\c1ccc(O)cc1)Cc1ccc(O)cc1 [compound 2],TEAC,[1],2.94
CCCC/C=[N+](\[O-])C(C)C [VAL-IPHA],TEAC,[2],0.18
same,TEAC values compared to the compounds of the invention,,not very high
Cc1cc(C(C)(C)C)c(O)c(C(C)(C)C)c1 [BHT],TEAC,[2],0.11-0.21
same,TEAC values compared to the compounds of the invention,,not very high
Vitamin E,TEAC,[2],0.13
COc1cc(/C=[N+](\[O-])Cc2ccc(O)cc2O)ccc1O [compound 1],TEAC,[1],6.45
CC(C)(C)/[N+]([O-])=C/c1ccccc1 [PBN],TEAC values compared to the compounds of the invention,,not very high
O=C1O[C@H]([C@@H](O)CO)C(O)=C1O [Vitamin C],TEAC,[2],0.76
